Experimental findings from patent US9517279B2, “2-alkoxy-11-hydroxyaporphine derivatives and uses thereof” (The McLean Hospital Corporation, priority 2010, dated 2016) are described below.

Each structure is given as a SMILES string. Structures can show the parent of a compound that is named as a salt. Where two headings read alike, the source gives them in different places.

One data set has as its target T1, D2^low (Rattus norvegicus, UniProt P61169).
T1 construct: membrane-containing homogenates of rat corpus striatum tissue; from tissue; host or cells: rat corpus striatum
The data set is described as follows: Competitive radioreceptor binding, D2 low-affinity state, rat striatum [3H]domperidone.

For another data set, the target named is T2, D1^low (Rattus norvegicus, UniProt P18901).
T2 construct: membrane-containing homogenates of rat corpus striatum tissue; from tissue; host or cells: rat corpus striatum
T2 sequence (P18901 whole entry): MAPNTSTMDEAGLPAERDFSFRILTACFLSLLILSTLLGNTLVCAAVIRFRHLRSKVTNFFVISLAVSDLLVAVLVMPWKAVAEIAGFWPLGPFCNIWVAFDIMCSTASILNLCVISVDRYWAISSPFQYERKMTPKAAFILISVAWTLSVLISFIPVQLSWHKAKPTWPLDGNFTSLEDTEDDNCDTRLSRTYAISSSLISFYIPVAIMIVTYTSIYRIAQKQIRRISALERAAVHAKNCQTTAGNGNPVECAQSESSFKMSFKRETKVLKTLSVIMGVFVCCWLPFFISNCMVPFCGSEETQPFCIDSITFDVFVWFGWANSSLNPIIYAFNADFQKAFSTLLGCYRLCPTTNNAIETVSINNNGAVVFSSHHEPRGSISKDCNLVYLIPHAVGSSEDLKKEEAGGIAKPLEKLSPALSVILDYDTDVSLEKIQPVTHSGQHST
The data set is described as follows: Competitive radioreceptor binding, D1 low-affinity state, rat striatum [3H]SCH23390.

Another data set addresses T3, D1^high (Rattus norvegicus, UniProt P18901).
T3 construct: membrane-containing homogenates of rat corpus striatum tissue; from tissue; host or cells: rat corpus striatum
The data set is described as follows: Competitive radioreceptor binding, D1 high-affinity state, rat striatum [3H]SCH23390.

Another data set deals with T4, D2^high (Rattus norvegicus, UniProt P61169).
T4 construct: membrane-containing homogenates of rat corpus striatum tissue; from tissue; host or cells: rat corpus striatum
T4 sequence (P61169 whole entry): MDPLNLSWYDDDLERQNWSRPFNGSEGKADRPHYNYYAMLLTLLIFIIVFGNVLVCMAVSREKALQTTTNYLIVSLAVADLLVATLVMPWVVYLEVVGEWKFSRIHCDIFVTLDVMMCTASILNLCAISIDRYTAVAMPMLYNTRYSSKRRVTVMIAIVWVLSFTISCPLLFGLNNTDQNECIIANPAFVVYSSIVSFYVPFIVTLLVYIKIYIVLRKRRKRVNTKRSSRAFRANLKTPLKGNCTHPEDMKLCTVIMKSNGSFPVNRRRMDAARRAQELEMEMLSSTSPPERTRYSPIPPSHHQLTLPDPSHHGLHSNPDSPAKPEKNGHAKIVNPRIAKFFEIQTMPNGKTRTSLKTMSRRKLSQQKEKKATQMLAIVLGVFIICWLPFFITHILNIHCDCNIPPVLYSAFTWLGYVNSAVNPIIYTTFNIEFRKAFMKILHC
The data set is described as follows: Competitive radioreceptor binding, D2 high-affinity state, rat striatum [3H]domperidone. The settings on record: for D2^high binding affinity (in words): comparison with analogue.

The target in another data set is T5, human D3 clone (Homo sapiens, UniProt P35462).
T5 construct: expressed in transfected cells
T5 sequence (P35462 whole entry): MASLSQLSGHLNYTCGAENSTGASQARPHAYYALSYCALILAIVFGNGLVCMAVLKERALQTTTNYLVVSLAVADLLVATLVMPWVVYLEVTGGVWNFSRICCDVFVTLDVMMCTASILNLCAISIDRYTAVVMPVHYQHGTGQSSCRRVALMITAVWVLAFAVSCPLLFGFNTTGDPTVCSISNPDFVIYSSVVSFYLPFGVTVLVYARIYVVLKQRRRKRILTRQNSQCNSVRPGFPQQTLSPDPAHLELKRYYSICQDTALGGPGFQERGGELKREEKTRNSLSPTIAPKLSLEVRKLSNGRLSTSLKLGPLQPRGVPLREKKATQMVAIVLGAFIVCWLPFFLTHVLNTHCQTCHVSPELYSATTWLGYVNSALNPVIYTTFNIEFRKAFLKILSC
The data set is described as follows: Competitive binding, human D3 clone [3H]domperidone. As to conditions: for Ki: human D3 clone, [3H]domperidone.

Another data set has as its target T6, D3^high (Homo sapiens, UniProt P35462).
T6 construct: expressed in transfected cells
The data set is described as follows: D3 high-affinity state binding (footnote g). The settings on record: footnote g of Table 1.

Another data set deals with T7, D3 rat clone (Rattus norvegicus, UniProt P19020).
T7 construct: expressed in transfected cells
T7 sequence (P19020 whole entry): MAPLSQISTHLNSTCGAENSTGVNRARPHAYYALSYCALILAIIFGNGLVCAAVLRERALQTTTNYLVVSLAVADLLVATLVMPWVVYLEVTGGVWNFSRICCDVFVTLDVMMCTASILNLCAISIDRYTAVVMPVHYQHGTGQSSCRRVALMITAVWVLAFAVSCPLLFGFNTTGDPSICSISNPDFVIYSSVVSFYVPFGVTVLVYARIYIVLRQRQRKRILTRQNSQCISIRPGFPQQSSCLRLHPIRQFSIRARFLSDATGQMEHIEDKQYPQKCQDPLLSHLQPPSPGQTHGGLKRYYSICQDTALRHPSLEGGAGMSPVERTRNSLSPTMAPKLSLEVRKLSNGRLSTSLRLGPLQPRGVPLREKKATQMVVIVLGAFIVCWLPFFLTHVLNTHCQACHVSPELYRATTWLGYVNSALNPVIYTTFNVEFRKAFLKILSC
The data set is described as follows: Competitive binding, D3 rat clone [3H]domperidone.

In the next data set the target is T8, D1 human clone (D1^low) (Homo sapiens, UniProt P21728).
T8 construct: expressed in transfected cells
T8 sequence (P21728 whole entry): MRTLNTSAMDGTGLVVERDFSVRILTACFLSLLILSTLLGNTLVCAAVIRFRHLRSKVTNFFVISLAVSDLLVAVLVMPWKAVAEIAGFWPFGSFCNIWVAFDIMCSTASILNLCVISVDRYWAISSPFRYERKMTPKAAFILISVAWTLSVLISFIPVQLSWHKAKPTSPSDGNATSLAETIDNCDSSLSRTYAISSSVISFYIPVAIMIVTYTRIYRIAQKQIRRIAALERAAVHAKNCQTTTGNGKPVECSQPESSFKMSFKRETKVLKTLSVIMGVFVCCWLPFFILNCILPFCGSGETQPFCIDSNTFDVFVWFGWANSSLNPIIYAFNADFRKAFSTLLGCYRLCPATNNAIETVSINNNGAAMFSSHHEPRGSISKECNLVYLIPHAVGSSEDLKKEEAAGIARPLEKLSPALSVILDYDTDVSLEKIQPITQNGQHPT
The experiment in a line: Competitive binding, D1 human clone [3H]SCH23390.

Setting [1] is: rat striatum, [3H]domperidone, read-out: Ki D2^high.
Where [2] appears, read: rat striatum, [3H]SCH23390, read-out: Ki D1^low (class).

T3 sequence (P18901 whole entry): as the sequence (P18901 whole entry) above
T1 sequence (P61169 whole entry): as the sequence (P61169 whole entry) above
T6 sequence (P35462 whole entry): as the sequence (P35462 whole entry) above

For the molecule `CCCN1CCc2cc(OCCF)cc3c2[C@H]1Cc1ccc(O)c(O)c1-3` (as salt: HCl) [8b, R(−)-2-Fluoroethyoxy-NPA], the melting point (in general, the temperature of the solid-liquid transition) was 203 to 205 °C (dec.).
With `CCN1CCc2cc(OCCCF)cc3c2[C@H]1Cc1ccc(O)c(O)c1-3` (as salt: HCl) [8c, R(−)-2-(3-Fluoropropanoxy) 10,11-dihydroxy-N-ethylnoraporphine], the melting point is 174 to 176 °C (dec.).
The molecule `CCN1CCc2cc(OCCF)cc3c2[C@H]1Cc1ccc(O)c(O)c1-3` (as salt: HCl) [8d, R(−)-2-fluoroethoxy-N-ethylnorapomorphine] came in with a melting point of 163 to 165 °C.
For `CCN1CCc2cc(OCCI)cc3c2[C@H]1Cc1ccc(O)c(O)c1-3` (as salt: HCl) [8e, R(−)-2-iodoethoxy-N-ethylnorapomorphine], the melting point was 155 to 163 °C (dec.).
For `CN1CCc2cc(OCCCF)cc3c2[C@H]1Cc1ccc(O)c(O)c1-3` (as salt: HCl) [8f, R(−)-2-(3-Fluoropropanoxy) 10,11-dihydroxyaporphine], the melting point was 170 to 175 °C (dec.).
`CCN1CCc2cc(OCCCF)cc3c2[C@H]1Cc1cccc(O)c1-3` (as salt: HCl) [11c]: the melting point is 156 to 158 °C (dec.).
On to `Oc1cccc2c1-c1cccc3c1[C@@H](C2)N(CCCF)CC3` (as salt: HCl) [compound 6, R(−)-11-Hydroxy-N-(3-fluoropropyl)noraporphine], for which the melting point was 195 to 197 °C (dec.).
Regarding `CN1CCc2cc(OCCF)cc3c2[C@H]1Cc1ccc(O)c(O)c1-3` (as salt: salt) [8g, R(−)-2-(2-Fluoroethoxy) 10,11-dihydroxyaporphine], the melting point is 236 to 238 °C (dec.).
Turning to `CCCN1CCc2cc(OC)cc3c2[C@H]1Cc1ccc(O)c(O)c1-3` [2b, 2-MeO-NPA, reference compound], the inhibitory constant (Ki) (as a rule, a measure of affinity in units of concentration, obtained from inhibition or displacement) at D2^low was 805 ± 140 nM; on D1^low, > 2000 nM; at D1^high, 8.1 ± 0.7 nM; on D2^high (setting [1]), 5.1 ± 1.3 nM.
Take `CCCN1CCc2cc(F)cc3c2[C@H]1Cc1ccc(O)c(O)c1-3` [2c, 2-F-NPA, reference compound]: the Ki on D2^low is 1800 ± 340 nM; at D1^low (setting [2]), > 2000 nM; at D2^high (setting [1]), 2.7 ± 1.3 nM. In addition, the “Ki D1^high” value on D1^high is on record as “No D1^high”.
In the case of `CCCN1CCc2cccc3c2[C@H]1Cc1cccc(O)c1-3` [3b, reference compound], at human D3 clone, the affinity, expressed as Ki, was 1.7 ± 0.25 µM.
As for `CCCN1CCc2cc(OCCCF)cc3c2[C@H]1Cc1ccc(O)c(O)c1-3` [8a, R(−)-2-(3-fluoropropanoxy)-NPA], the Ki on D2^low is 3000 nM; on D1^low, > 2000 nM; on human D3 clone it was 0.43 ± 0.064 µM; on D2^high it was 27 nM; at D2^high (setting [1]) it was 28 ± 15 nM. Also, at D1^high, the “Ki D1^high” value is reported as “No D1^high”.
As to `CCCN1CCc2cc(OCCF)cc3c2[C@H]1Cc1ccc(O)c(O)c1-3` [8b, R(−)-2-Fluoroethyoxy-NPA], the Ki is 990 ± 35 nM at D2^low, > 2000 nM on D1^low (setting [2]), 2.2 ± 0.33 µM at human D3 clone and 3.7 nM at D2^high (setting [1]). Also, on D1^high, the “Ki D1^high” value is “No D1^high”.
Take `CCN1CCc2cc(OCCCF)cc3c2[C@H]1Cc1ccc(O)c(O)c1-3` [8c, R(−)-2-(3-Fluoropropanoxy) 10,11-dihydroxy-N-ethylnoraporphine]: the Ki is 1600 ± 780 nM on D2^low, > 2000 nM on D1^low (setting [2]) and 6.1 ± 3 nM on D2^high (setting [1]). In addition, the “Ki D1^high” value on D1^high is listed as “No D1^high”. Besides, the “fold increase in D2^high affinity” value at D2^high (in comparison to 8a) is given as ~4 fold.
With `CCN1CCc2cc(OCCF)cc3c2[C@H]1Cc1ccc(O)c(O)c1-3` [8d, R(−)-2-fluoroethoxy-N-ethylnorapomorphine], the results for the Ki on D2^low, on D1^low (setting [2]) and at D2^high (setting [1]) were 2400 ± 1500 nM, > 2000 nM and 2.5 nM, respectively. The “Ki D1^high” value on D1^high is given as “No D1^high”. Also, on D2^high (compared with 8c), the “fold improvement in D2^high binding affinity” value is on record as “more than 2 fold”.
On to `CCN1CCc2cc(OCCI)cc3c2[C@H]1Cc1ccc(O)c(O)c1-3` [8e, R(−)-2-iodoethoxy-N-ethylnorapomorphine], for which the Ki is 770 ± 230 nM at D2^low, > 2000 nM on D1^low (setting [2]), > 10 µM on human D3 clone (bound given in μM) and 5 ± 2.3 nM on D2^high. The “Ki D1^high” value at D1^high is “No D1^high”. At D2^high, the “D2^high binding affinity (in words)” value is listed as “slight drop”. Besides, the “selectivity for D2^high over D1, D3, and D2^low” value on D2^high (in words) is “high selectivity”.
With `CN1CCc2cc(OCCCF)cc3c2[C@H]1Cc1ccc(O)c(O)c1-3` [8f, R(−)-2-(3-Fluoropropanoxy) 10,11-dihydroxyaporphine], at D3^high, the “D3^high affinity” value is on record as “did not show any D3^high affinity”. Also, the Ki was > 2000 nM on D1^low (setting [2]) and 31 nM at D2^high (setting [1]). The “Ki D1^high” value at D1^high was “No D1^high”.
With `CN1CCc2cc(OCCF)cc3c2[C@H]1Cc1ccc(O)c(O)c1-3` [8g, R(−)-2-(2-Fluoroethoxy) 10,11-dihydroxyaporphine], the inhibition constant Ki on D2^low was 620 ± 260 nM; at D1^low (setting [2]) it was > 2000 nM. At D1^high, the “Ki D1^high” value is “No D1^high”. At human D3 clone, the “D3 affinity (in words)” value is recorded as “no detectable affinity”.
Take `CCCN1CCc2cc(OCCCF)cc3c2[C@H]1Cc1cccc(O)c1-3` [11a]: the figures for the Ki on D1^low (setting [2]) and on D3 rat clone were > 2000 nM and 100 ± 14 nM, respectively. The “Ki D1^high” value on D1^high is given as “No D1^high”.
On to `CCCN1CCc2cc(OCCF)cc3c2[C@H]1Cc1cccc(O)c1-3` [11b, R(−)-2-(2-fluoroethoxy)-11-hydroxy-N-n-propylnoraporphine], for which the Ki at D2^low was 56 ± 37 nM; at D1^low, > 2000 nM; on D2^high (setting [1]), 3.5 ± 2 nM; on D3 rat clone it was 410 ± 62 nM. In addition, on D1^high, the “Ki D1^high” value is reported as “No D1^high”. The “D2^high binding affinity (in words)” value at D2^high was “about the same”.
For `CCN1CCc2cc(OCCCF)cc3c2[C@H]1Cc1cccc(O)c1-3` [11c], the Ki was 400 ± 290 nM at D2^low, 1300 ± 200 nM on D1 human clone (D1^low), 3.2 ± 2.2 nM on D2^high (setting [1]) and 240 ± 33 nM at D3 rat clone. Moreover, the “Ki D1^high” value on D1^high is recorded as “No D1^high”. Moreover, the “D2^high binding affinity (in words)” value on D2^high is listed as “overall improved binding affinity”.
Consider `CCN1CCc2cc(OCCF)cc3c2[C@H]1Cc1cccc(O)c1-3` [11d, R(−)-2-(2-fluoroethoxy)-11-hydroxy-N-n-ethylnoraporphine], for which the “Ki D1^high” value on D1^high is “No D1^high”. Moreover, the inhibition constant Ki on D1 human clone (D1^low) (D1 human clone, [3H]SCH23390, read-out: Ki D1^low) is 810 ± 120 nM; on D3 rat clone, 550 ± 89 nM.
In the case of `CN1CCc2cc(OCCF)cc3c2[C@H]1Cc1cccc(O)c1-3` [11g, R(−)-2-(2-fluoroethoxy)-11-hydroxyaporphine], the Ki amounted to 480 ± 130 nM on D2^low, 0.89 ± 0.13 µM on human D3 clone and 1.2 ± 0.4 nM on D2^high (setting [1]).
Turning to `Oc1cccc2c1-c1cccc3c1[C@@H](C2)N(CCCF)CC3` [compound 6, R(−)-11-Hydroxy-N-(3-fluoropropyl)noraporphine], the Ki at D2^low is 860 ± 170 nM; at D1^low (setting [2]), > 2000 nM; on human D3 clone (bound given in μM), > 10 µM; on D2^high (setting [1]), 6.9 ± 2.1 nM. The “Ki D1^high” value at D1^high was “No D1^high”.
